Experimental data from patent publication US20240050735A1, “SYSTEMS AND METHODS FOR TREATING AND INHIBITING WOUND INFECTIONS” (priority 2020, published 2024).
Where a name gives a salt, the structure may show the parent alone.

Legend:
[1] = test system: MRSA biofilm-infected porcine skin wound; assay: Ex vivo anti-biofilm efficacy, standard plate counting assay; format: cell-based, Methicillin-resistant S. aureus (MRSA) USA300
Experimental: Same as previous tests, an ex vivo MRSA biofilm-infected porcine skin wound model was used here. First the biofilm treatment efficacy was tested when different current intensities were used with a fixed VAN loading concentration at 1 mg mL^−1. After a single treatment for 1 hour, wound tissues were incubated for 24 hours in a 37° C. incubator to allow VAN to take effect. After incubation, tissue samples were collected and evaluated for bacterial count using the standard plate counting assay for MRSA colony. […] Treating the biofilm with no current for 1 hour (only VAN diffusion) or a low current of 0.5 mA cm^−2 for 1 hour induced a minimal MRSA count reduction to 10^9.8 CFU g^−1 and 10^9.6 CFU g^−1, respectively. When 19 mA cm^−2, 38 mA cm^−2, and 75 mA cm^−2 were applied, MRSA count was further reduced to 10^8.6 CFU g^−1, 10^8.3 CFU g^−1 and 10^7.6 CFU g^−1, respectively (see FIGS. 5A and 5F). […] Because 75 mA cm^−2 had better anti-biofilm efficacy than other conditions, it was selected for the following tests.
The fetal pig skin samples (approximately 30×30 mm) were immersed in 10% (v/v) bleach for 5 minutes after hair removal. Then, skin samples were sterilized in 70% ethanol for 30 minutes. The surface of skin sample was further cleaned by 10% povidone-iodine and 70% isopropanol to prevent contamination. A 6-mm disposable biopsy punch was used to create an excisional wound. Samples were put into sterile 10-cm petri-dishes filled with sterile PBS (6 mL). The wound was then inoculated with 1×10^8 CFU mL^−1 MRSA bacteria solution (20 μL). The bacteria were allowed to grow in a 37° C. Heratherm™ compact microbiological incubator (ThermoFischer Scientific™, Waltham, Mass., USA) for 48 hours to form mature biofilms.
The HIC-based biofilm treatment system 100 embodiment shown in FIG. 18 was used to test electrical debridement treatment of high-intensity current on ex vivo MRSA biofilm infected skin wounds. The MRSA biofilm infected skin wound was sandwiched between anode and cathode HIC-based devices (i.e., the working device 104 and the counter device 106). To evaluate the anti-biofilm effect of high current intensity only, PBS (5 mL) was filled in both drug/buffer chamber 114 and PBS chamber 122 and then 0.5 mA cm^−2, 19 mA cm^−2, 38 mA cm^−2, and 75 mA cm^−2 was applied for 1 hour, respectively. The device/skin wound contact area was 0.502 cm^2. Skin samples were collected by 8-mm biopsy punch immediately after test or at 24 hours after testing. To evaluate the biofilm thickness before and after different treatments, samples were embedded in tissue freezing medium (OCT) and sectioned at 8 μm. After being imaged in microscope, the thickness of biofilms after different treatments were measured using ImageJ software. To evaluate the colony-forming unit (CFU) counts per gram of MRSA from infected skin wounds, samples were homogenized in PBS (10 mL) and diluted with PBS, and then transferred to standard plate counting assay. The bactericidal efficacy was calculated as follows:
The HIC-based biofilm treatment system 100 embodiment shown in FIG. 18 was used to evaluate combined biofilm treatment efficacy of electrical debridement and VAN delivery. To evaluate the anti-biofilm treatment efficacy of current intensity, 0 mA cm^−2 (passive diffusion) to 75 mA cm^−2 was applied on the HIC-based biofilm treatment system 100 with 1 mg mL^−1 VAN loaded in HIC-based working device 104, respectively. […] To further enhance the anti-biofilm efficacy of electrical debridement and high concentration delivery of VAN, two treatments were applied, named protocol #1 and protocol #2. Protocol #1 applied two treatments (treatment: 75 mA cm^−2 for 1 hour, 1 mg mL^−1 VAN loaded in HIC-based working device 104) separated by 6 hours. Protocol #2 applied two treatments (treatment same as Protocol #1) separated by 24 hours. CFU was counted 24 hours after last treatment using the standard spread counting assay. The bactericidal efficacy was calculated accordingly. […]

HDFa cells = assay: Cell toxicity of high concentration of antibiotics, LIVE/DEAD stain; format: cell-based, human; conditions: 4.5 mg mL^−1 VAN, 48 hour incubation
Experimental: (§1) To evaluate the cell toxicity of the high concentration of antibiotics, HaCaT cells and HDFa cells were used. 2×10^4 HaCat cells and 2×10^3 HDFa cells were seeded in each well of a 96-well plate. After being cultured in an incubator under 37° C. and 5% CO2 for 24 hours, 4.5 mg mL^−1 VAN and 20 mg mL^−1 DAP were added to the culture media, respectively. Both HaCat cells and HDFa cells were treated by VAN for two days, and exposed to DAP for one day, respectively. The cell toxicity of the two cells at the end time points were evaluated by LIVE/DEAD stain and visualized by a confocal laser scanning microscope (CLSM, LSM 710, Zeiss, Germany).

HaCaT cells = assay: as above; format: cell-based, human; conditions: 4.5 mg mL^−1 VAN, 48 hour incubation
Experimental: as §1

S. aureus biofilms = conditions: cited from earlier work
[2] = 75 mA cm^−2 1 hour, 1 mg mL^−1 VAN, 24 hours after

CN[C@H](CC(C)C)C(=O)N[C@H]1C(=O)N[C@@H](CC(N)=O)C(=O)N[C@H]2C(=O)N[C@H]3C(=O)N[C@H](C(=O)N[C@H](C(=O)O)c4cc(O)cc(O)c4-c4cc3ccc4O)[C@H](O)c3ccc(c(Cl)c3)Oc3cc2cc(c3O[C@@H]2O[C@H](CO)[C@@H](O)[C@H](O)[C@H]2O[C@H]2C[C@](C)(N)[C@H](O)[C@H](C)O2)Oc2ccc(cc2Cl)[C@H]1O [VAN, Vancomycin hydrochloride]
bactericidal efficacy ([1]; 0.5 mA cm^−2 1 hour, 1 mg mL^−1 VAN, 24 hours after): 4.4±2.76 times | bactericidal efficacy ([1]; 19 mA cm^−2 1 hour, 1 mg mL^−1 VAN, 24 hours after): 57.8±50.30 times | bactericidal efficacy ([1]; 38 mA cm^−2 1 hour, 1 mg mL^−1 VAN, 24 hours after): 81.4±13.34 times | bactericidal efficacy [1, 2]: 452.8±115.32 times | bactericidal rate [1, 2]: 99.8% | bactericidal efficacy ([1]; 75 mA cm^−2 1 hour, 3 mg mL^−1 VAN loading): 112.6±13.58 times | bactericidal efficacy ([1]; 75 mA cm^−2 1 hour, 5 mg mL^−1 VAN loading): 5.1±3.80 times | bactericidal efficacy ([1]; 75 mA cm^−2 1 hour, 10 mg mL^−1 VAN loading): 9.7±2.92 times | bactericidal efficacy ([1]; passive diffusion 1 hour, 1 mg mL^−1 VAN, 24 hours after): 2.7±2.06 times | MRSA bacterial count reduction in wound tissue ([1]; single 1 hour treatment, 75 mA cm^−2, 1 mg mL^−1 VAN): 2.6 login scales | viability of skin cells (HDFa cells): not affected | viability of skin cells (HaCaT cells): not affected | diffusion coefficient in S. aureus biofilms (S. aureus biofilms; 2012 study): 0.2 μm 2 s^−1 | slower than its diffusion in water (S. aureus biofilms; S. aureus biofilms): more than 1,000 times
